How the values were obtained:
Assay type in all cases: in vivo
[1] = system: Spodoptera littoralis (Egyptian Cotton Leaf Worm); assay: Example B1: Activity against Spodoptera littoralis, sprayed cotton leaf discs; settings: foliar, 72 h, application rate 200 ppm, L1 larvae, 3 days after infestation, read-out: control in at least one of the three categories (mortality, anti-feedancy or growth inhibition)
Procedure: Example B1: Activity Against Spodoptera littoralis (Egyptian Cotton Leaf Worm)
Cotton leaf discs were placed on agar in 24-well microtiter plates and sprayed with aqueous test solutions prepared from 10′000 ppm DMSO stock solutions. After drying the leaf discs were infested with five L1 larvae. The samples were assessed for mortality, anti-feedant effect, and growth inhibition in comparison to untreated samples 3 days after infestation. Control of Spodoptera littoralis by a test sample is when at least one of mortality, anti-feedant effect, and growth inhibition is higher than the untreated sample.

[2] = system: Plutella xylostella (Diamond Back Moth); assay: Example B3: Activity against Plutella xylostella, artificial diet; settings: 120 h, application rate 200 ppm, L2 larvae, 5 days after infestation, read-out: effect in at least one of the two categories (mortality or growth inhibition)
Procedure: Example B3: Activity Against Plutella xylostella (Diamond Back Moth)
24-well microtiter plates with artificial diet were treated with aqueous test solutions prepared from 10′000 ppm DMSO stock solutions by pipetting. After drying, the plates were infested with L2 larvae (10 to 15 per well). The samples were assessed for mortality and growth inhibition in comparison to untreated samples 5 days after infestation.

[3] = system: Diabrotica Balteata (Corn Root Worm); assay: Example B4: Activity against Diabrotica balteata, sprayed maize sprouts; settings: 96 h, application rate 200 ppm, L2 larvae, 4 days after infestation, read-out: effect in at least one of the two categories (mortality or growth inhibition)
Procedure: Example B4: Activity Against Diabrotica Balteata (Corn Root Worm)
Maize sprouts, placed on an agar layer in 24-well microtiter plates were treated with aqueous test solutions prepared from 10′000 ppm DMSO stock solutions by spraying. After drying, the plates were infested with L2 larvae (6 to 10 per well). The samples were assessed for mortality and growth inhibition in comparison to untreated samples 4 days after infestation.

[4] = system: Euschistus heros (Neotropical Brown Stink Bug); assay: Example B7: Activity against Euschistus heros, sprayed soybean leaf; settings: 120 h, application rate 200 ppm, N-2 nymphs, 5 days after infestation
Procedure: Example B7: Activity Against Euschistus heros (Neotropical Brown Stink Bug)
Soybean leaf on agar in 24-well microtiter plates were sprayed with aqueous test solutions prepared from 10′000 ppm DMSO stock solutions. After drying the leaf were infested with N-2 nymphs. The samples were assessed for mortality 5 days after infestation.

[5] = system: Myzus persicae (Green Peach Aphid); assay: Example B8: Activity against Myzus persicae, sprayed sunflower leaf discs; settings: foliar, 144 h, application rate 200 ppm, aphid population of mixed ages, 6 days after infestation
Procedure: Example B8: Activity Against Myzus persicae (Green Peach Aphid)
Sunflower leaf discs were placed on agar in a 24-well microtiter plate and sprayed with aqueous test solutions prepared from 10′000 ppm DMSO stock solutions. After drying, the leaf discs were infested with an aphid population of mixed ages. The samples were assessed for mortality 6 days after infestation.

CCS(=O)(=O)c1cc(-c2ccc(Cl)c(Cl)n2)cnc1C(=O)N(C)c1nnc(C(F)(F)F)s1 [Compound P46]
≥ 80%: percent control (mortality, anti-feedant effect or growth inhibition) at 200 ppm [1] | percent effect (mortality or growth inhibition) at 200 ppm [2] | percent effect (mortality or growth inhibition) at 200 ppm [3]

CCS(=O)(=O)c1cc(-c2ccc(OC(F)(F)F)cc2)cnc1C(=O)N(C)c1nnc(C(F)(F)F)s1 [Compound P22]
≥ 80%: percent control (mortality, anti-feedant effect or growth inhibition) at 200 ppm [1] | percent effect (mortality or growth inhibition) at 200 ppm [2] | percent effect (mortality or growth inhibition) at 200 ppm [3] | mortality at 200 ppm [4] | mortality at 200 ppm [5]

CCSc1cc(-n2ccc(C(F)(F)F)n2)cnc1C(=O)N(C)c1nnc(C(F)(F)F)s1 [Compound P16, 3-ethylsulfanyl-N-methyl-5-[3-(trifluoromethyl)pyrazol-1-yl]-N-[5-(trifluoromethyl)-1,3,4-thiadiazol-2-yl]pyridine-2-carboxamide]
≥ 80%: percent control (mortality, anti-feedant effect or growth inhibition) at 200 ppm [1] | percent effect (mortality or growth inhibition) at 200 ppm [3]

CCS(=O)(=O)c1cc(-c2cccc(C#N)c2)cnc1C(=O)N(C)c1nnc(C(F)(F)F)s1 [Compound P23]
≥ 80%: percent control (mortality, anti-feedant effect or growth inhibition) at 200 ppm [1] | percent effect (mortality or growth inhibition) at 200 ppm [2] | percent effect (mortality or growth inhibition) at 200 ppm [3]

CCS(=O)(=O)c1cc(-c2ccc(C(F)(F)F)cn2)cnc1C(=O)N(C)c1nnc(C(F)(F)F)s1 [Compound P53]
≥ 80%: percent control (mortality, anti-feedant effect or growth inhibition) at 200 ppm [1] | percent effect (mortality or growth inhibition) at 200 ppm [2] | percent effect (mortality or growth inhibition) at 200 ppm [3]

CCS(=O)(=O)c1cc(-c2cc(Cl)c(F)c(Cl)c2)cnc1C(=O)N(C)c1nnc(C(F)(F)F)s1 [Compound P27]
≥ 80%: percent control (mortality, anti-feedant effect or growth inhibition) at 200 ppm [1] | percent effect (mortality or growth inhibition) at 200 ppm [2] | percent effect (mortality or growth inhibition) at 200 ppm [3]

CCS(=O)(=O)c1cc(-c2ccc(C(F)(F)F)cc2)cnc1C(=O)Nc1nnc(C(F)(F)C(F)(F)F)s1 [Compound P10]
≥ 80%: percent effect (mortality or growth inhibition) at 200 ppm [3]

CCS(=O)(=O)c1cc(-c2ccc(C(F)(F)F)cc2)cnc1C(=O)N(C)c1nnc(C(F)(F)C(F)(F)F)s1 [Compound P11]
≥ 80%: percent control (mortality, anti-feedant effect or growth inhibition) at 200 ppm [1] | percent effect (mortality or growth inhibition) at 200 ppm [2] | percent effect (mortality or growth inhibition) at 200 ppm [3] | mortality at 200 ppm [4]

CCS(=O)(=O)c1cc(-n2ccc(C(F)(F)F)n2)cnc1C(=O)N(C)c1nnc(C(F)(F)C(F)(F)F)s1 [Compound P15]
≥ 80%: percent control (mortality, anti-feedant effect or growth inhibition) at 200 ppm [1] | percent effect (mortality or growth inhibition) at 200 ppm [2] | percent effect (mortality or growth inhibition) at 200 ppm [3] | mortality at 200 ppm [4]

CCS(=O)(=O)c1cc(-n2ccc(C(F)(F)F)n2)cnc1C(=O)Nc1nnc(C(F)(F)C(F)(F)F)s1 [Compound P7]
≥ 80%: percent effect (mortality or growth inhibition) at 200 ppm [3]

CCS(=O)(=O)c1ccc(-c2cnc(C(=O)N(C)c3nnc(C(F)(F)F)s3)c(S(=O)(=O)CC)c2)cc1 [Compound P3]
≥ 80%: percent control (mortality, anti-feedant effect or growth inhibition) at 200 ppm [1] | percent effect (mortality or growth inhibition) at 200 ppm [2] | percent effect (mortality or growth inhibition) at 200 ppm [3]

CCS(=O)(=O)c1cc(-c2ncc(C#N)cn2)cnc1C(=O)N(C)c1nnc(C(F)(F)F)s1 [Compound P63]
≥ 80%: percent control (mortality, anti-feedant effect or growth inhibition) at 200 ppm [1] | percent effect (mortality or growth inhibition) at 200 ppm [2] | percent effect (mortality or growth inhibition) at 200 ppm [3] | mortality at 200 ppm [4]

CCS(=O)(=O)c1cc(-n2ccc(C(F)(F)F)n2)cnc1C(=O)N(C)c1nnc(C(F)(F)F)s1 [Compound P17, 3-ethylsulfonyl-N-methyl-5-[3-(trifluoromethyl)pyrazol-1-yl]-N-[5-(trifluoromethyl)-1,3,4-thiadiazol-2-yl]pyridine-2-carboxamide]
≥ 80%: percent control (mortality, anti-feedant effect or growth inhibition) at 200 ppm [1] | percent effect (mortality or growth inhibition) at 200 ppm [2] | percent effect (mortality or growth inhibition) at 200 ppm [3] | mortality at 200 ppm [4]

CCS(=O)(=O)c1cc(C2(C#N)CC2)cnc1C(=O)N(C)c1nnc(C(F)(F)F)s1 [Compound P18]
≥ 80%: percent control (mortality, anti-feedant effect or growth inhibition) at 200 ppm [1] | percent effect (mortality or growth inhibition) at 200 ppm [2] | percent effect (mortality or growth inhibition) at 200 ppm [3] | mortality at 200 ppm [5]

CCS(=O)(=O)c1cc(-c2cccc(C(F)(F)F)n2)cnc1C(=O)N(C)c1nnc(C(F)(F)F)s1 [Compound P45]
≥ 80%: percent control (mortality, anti-feedant effect or growth inhibition) at 200 ppm [1] | percent effect (mortality or growth inhibition) at 200 ppm [2] | percent effect (mortality or growth inhibition) at 200 ppm [3] | mortality at 200 ppm [5]

CCS(=O)(=O)c1cc(-c2ccc(Cl)cc2)c[n+]([O-])c1C(=O)N(C)c1nnc(C(F)(F)F)s1 [Compound P19, 5-(4-chlorophenyl)-3-ethylsulfonyl-N-methyl-1-oxido-N-[5-(trifluoromethyl)-1,3,4-thiadiazol-2-yl]pyridin-1-ium-2-carboxamide]
≥ 80%: percent control (mortality, anti-feedant effect or growth inhibition) at 200 ppm [1] | percent effect (mortality or growth inhibition) at 200 ppm [2] | percent effect (mortality or growth inhibition) at 200 ppm [3] | mortality at 200 ppm [4]

CCS(=O)(=O)c1cc(-c2cccc(C#N)n2)cnc1C(=O)N(C)c1nnc(C(F)(F)F)s1 [Compound P50]
≥ 80%: percent control (mortality, anti-feedant effect or growth inhibition) at 200 ppm [1] | percent effect (mortality or growth inhibition) at 200 ppm [2] | percent effect (mortality or growth inhibition) at 200 ppm [3]

CCS(=O)(=O)c1cc(-c2ccc(Cl)cc2Cl)cnc1C(=O)N(C)c1nnc(C(F)(F)F)s1 [Compound P34]
≥ 80%: percent control (mortality, anti-feedant effect or growth inhibition) at 200 ppm [1] | percent effect (mortality or growth inhibition) at 200 ppm [2] | percent effect (mortality or growth inhibition) at 200 ppm [3] | mortality at 200 ppm [4]

CCS(=O)(=O)c1cc(-c2cncc(C(F)(F)F)c2)cnc1C(=O)N(C)c1nnc(C(F)(F)F)s1 [Compound P55]
≥ 80%: percent control (mortality, anti-feedant effect or growth inhibition) at 200 ppm [1] | percent effect (mortality or growth inhibition) at 200 ppm [3]

CCS(=O)(=O)c1ccc(-c2ccc(C(F)(F)F)cc2)nc1C(=O)N(C)c1nnc(C(F)(F)F)s1 [Compound P21, 3-ethylsulfonyl-N-methyl-6-[4-(trifluoromethyl)phenyl]-N-[5-(trifluoromethyl)-1,3,4-thiadiazol-2-yl]pyridine-2-carboxamide]
≥ 80%: percent control (mortality, anti-feedant effect or growth inhibition) at 200 ppm [1] | percent effect (mortality or growth inhibition) at 200 ppm [2] | percent effect (mortality or growth inhibition) at 200 ppm [3]

CCSc1cc(-c2ccc(Cl)cc2)cnc1C(=O)N(C)c1nnc(C(F)(F)F)s1 [Compound P1, 5-(4-chlorophenyl)-3-ethylsulfanyl-N-methyl-N-[5-(trifluoromethyl)-1,3,4-thiadiazol-2-yl]pyridine-2-carboxamide]
≥ 80%: percent control (mortality, anti-feedant effect or growth inhibition) at 200 ppm [1] | percent effect (mortality or growth inhibition) at 200 ppm [2] | percent effect (mortality or growth inhibition) at 200 ppm [3] | mortality at 200 ppm [4]

CCS(=O)(=O)c1cc(-c2ccc(-c3ccc(Cl)cc3)cc2)cnc1C(=O)N(C)c1nnc(C(F)(F)F)s1 [Compound P9]
≥ 80%: percent control (mortality, anti-feedant effect or growth inhibition) at 200 ppm [1] | percent effect (mortality or growth inhibition) at 200 ppm [2] | percent effect (mortality or growth inhibition) at 200 ppm [3]

CCS(=O)(=O)c1cc(-c2cc(Cl)cc(Cl)c2)cnc1C(=O)N(C)c1nnc(C(F)(F)F)s1 [Compound P24]
≥ 80%: percent control (mortality, anti-feedant effect or growth inhibition) at 200 ppm [1] | percent effect (mortality or growth inhibition) at 200 ppm [2] | percent effect (mortality or growth inhibition) at 200 ppm [3]

CCS(=O)(=O)c1cc(-c2ccc(Cl)cc2)cnc1C(=O)Nc1nnc(C(F)(F)C(F)(F)F)s1 [Compound P13]
≥ 80%: percent effect (mortality or growth inhibition) at 200 ppm [2] | percent effect (mortality or growth inhibition) at 200 ppm [3]

From patent US10590123B2, “Pesticidally active amide heterocyclic derivatives with sulphur containing substituents” (SYNGENTA PARTICIPATIONS AG, priority 2014, dated 2020)
